Laboratory results reported in patent publication US20240336640A1, “CALCIUM OXALATE CRYSTALLIZATION INHIBITORS FOR RENAL DISORDERS” (VIFOR (INTERNATIONAL) AG, priority 2018, published 2024).
Counter-ions that a name gives are not always drawn.

Test: CaOx crystallization inhibition assay in human urine, pH 6.2
Conditions: human urine pH 6.2, 1 mM sodium oxalate, 7 h, light microscopy
Method: For comparison of the compounds' efficacy to inhibit calcium oxalate (CaOx) crystallization a simple in vitro assay in urine was used. In brief, human urine (pH 6.2) was mixed with compound, followed by the addition of 1 mM sodium oxalate inducing CaOx crystallization. After 7 hours of incubation at room temperature crystallization was measured by light microscopy, employing an automated image analysis to detect, classify and quantify the CaOx crystal types formed, namely CaOx monohydrate (COM) and CaOx dihydrate (COD).
Human urine was stored at −20° C. in 50 mL aliquots. After thawing, aliquots were centrifuged, filtered using a 0.45-μm syringe filter and pH set to 6.2. Oxalate concentrations of human urine samples were determined using the Oxalate Assay kit following the kit protocol, and found to be <100 μM for the samples used. Dilutions of sodium and compounds were prepared in Bis Tris buffer (50 mM, 150 mM NaCl, pH 6.2). Urine was mixed with compound in Eppendorf tubes, and subsequently sodium oxalate was added. The final assay mixture of 1 mL total volume contained 90% urine, 5% sodium oxalate (1 mM) and 5% compound dilution. Immediately upon sodium oxalate addition, the final assay mixture was vortexed and added to the imaging slide (8 well glass bottom chamber, ibidi). 400 μL per well were added and two wells for each sample were prepared. Crystallization was assessed after 7 h incubation at room temperature, using a Leica CTR6000 microscope (Leica Microsystems, Wetzlar, Germany) in brightfield mode. For visualization, images with a 40× objective were used. For quantification 2 wells/sample with five 20× objective images each were used. Without addition of sodium oxalate no crystallization was observed.
Quantification and classification of crystals was performed in Matlab (version R2016b or R2018b). In brief, crystals were segmented using edge detection and watershed algorithms and subsequently shape, intensity and texture features for each crystal were extracted. The extracted features served as input for a semi-supervised classification approach to distinguish COM (class 0), COD (class 1), not determined structures (class 2) and background noise (class 3). A cubic support vector machine (SVM) classifier was trained and subsequently used for classification of testing images.
All testing images were processed using the Batch Processing App. Efficacy of compounds to inhibit CaOx crystallization was compared by analysing the total area per field of view for each crystal type. The sum of the total area of the three crystal classes—COM, COD and unclassified, was normalized to the control within each experiment (N=3). Due to the inherent variability of the crystallization process itself, normalization within each experiment decreased the effect of inter-experimental variability.
For `COCCOCCO[C@@H]1C(OP(=O)(O)O)[C@H](OCCOCCOC)[C@@H](OP(=O)(O)O)C(OP(=O)(O)O)[C@H]1OP(=O)(O)O` (stereo partly drawn) [(OEG2)2-IP4], the “50% complete inhibition (<50% total area)” value (“50% complete inhibition” below) was >100 µM, the “COM inhibition (<5% of total area)” value was >100 µM and the “Complete inhibition (i.e <5% total area)” value was >100 µM.
For `COCCOCCOCCOCCOCCOCCOCCOCCOCCOCCOCCO[C@@H]1[C@@H](OP(=O)(O)O)[C@H](OP(=O)(O)O)[C@@H](OP(=O)(O)O)[C@@H](OP(=O)(O)O)[C@H]1OP(=O)(O)O` [OEG11-IP5], the “50% complete inhibition” value was 11 µM, the “COM inhibition (<5% of total area)” value was 100 µM and the “Complete inhibition (i.e <5% total area)” value was >100 µM.
For `O=C(O)CC(O)(CC(=O)O)C(=O)O` [Citrate, Trisodium citrate dihydrate], the “50% complete inhibition” value was >100 µM, the “COM inhibition (<5% of total area)” value was >100 µM and the “Complete inhibition (i.e <5% total area)” value was >100 µM.
With `O=P(O)(O)O[C@H]1[C@H](OP(=O)(O)O)[C@@H](OP(=O)(O)O)[C@H](OP(=O)(O)O)[C@@H](OP(=O)(O)O)[C@H]1OP(=O)(O)O` [IP6, inositol hexaphosphate] the “50% complete inhibition” value was 30 µM, the “COM inhibition (<5% of total area)” value was 3 µM and the “Complete inhibition (i.e <5% total area)” value was >30 µM.
